Results reported in patent publication US20260007680A1, “Compounds and Their Use as PDE4 Activators” (Mironid Limited, priority 2022, published 2026).

tested on: m-IMCD3 cells; test: Inhibition of PGE2-stimulated in vitro cyst formation in 3D culture of m-IMCD3 cells (Experiment 4); format: cell-based, mouse; settings: 3D culture
Description: HEK 293 and MDCK cells (Public Health England, Cell Culture Collections) were maintained in Dulbecco's Modified Eagle's Medium (DMEM) supplemented with 10% (v/v) fetal bovine serum (FBS) (Seralab), 2 mM L-glutamine and 100 U/ml penicillin streptomycin cocktail (ThermoFisher); termed complete media. Clonal HEK 293 cell lines were maintained in complete media supplemented with 0.6 mg/mL G418 (Enzo Life Sciences). Mouse inner medullary collecting duct (m-IMCD3) cells [American Type Culture Collection (ATCC)] were maintained in media consisting of DMEM/Hams F-12 50/50 Mix (DMEM F12; Corning) supplemented with penicillin streptomycin cocktail (100 U/ml) and FBS (10% v/v) (DMEM F12-10% FBS).
The mouse Inner Medullary Collecting Duct cell line (m-IMCD3) spontaneously forms cystic spheroids in 3D culture with a Type 1 collagen/Matrigel extracellular matrix. This process can be stimulated with agents which raise intracellular cAMP and is used as an in vitro model for the formation of cystic structures in the kidneys of patients with ADPKD.
Rat Collagen I (Fisher Scientific) is prepared on ice by neutralising with 1 M NaOH and diluting with a 2×volume of DMEM/F12+10% FBS. This is mixed 1:1.1 with ice cold Matrigel (Corning) for coating plates (coating mix), and 1:0.93 with Matrigel for cell plating (plating mix).
The assay is conducted in the wells of a 96-well plate culture dish using a total volume of 130 μL of collagen/Matrigel/DMEM F12-10% FBS suspension in growth media for each matrix plug per individual well. Initially, 30 μL of collagen/Matrigel/DMEM F12-10% FBS (coating mix) is added into the well of a 96 well plate and the collagen is set to a gel by incubating at 37° C. for at least 15 minutes. A second layer of 100 μL collagen/Matrigel suspension (plating mix) containing m-IMCD3 cells (2.75×10^6 m-IMCD3 cells per 96-well plate) is layered over the coating mix and the collagen/Matrigel/cell mix again set to a gel by incubating at 37° C. Cell cultures are maintained at 37° C. in an atmosphere of 5% CO2, 95% air.
Between 18 and 24 h after plating, test compound(s) as DMSO stock solutions [0.1% (v/v) final DMSO concentration] and PGE2 (100 nM final concentration) in DMEM F12-10% FBS are added in quadruplicate wells per condition. Media, together with the test compound and PGE2 are replenished after 2 or 3 days. After 6 days of culture z stack images of the wells are captured using the Nikon Eclipse Ti2-E microscope. Nikon General Analysis software is used to measure the following parameters in each well: the mean cyst area, the number of cysts, and the total cyst area.
PDE4 long form activators inhibited in vitro cyst formation in m-IMCD3 cells. Data are shown in FIG. 2 and Table 4 as mean cyst area (%), compared to 100% for (DMSO+PGE2) and 0% for DMSO control.

Row | SMILES | inhibition of PGE2-stimulated cyst formation in m-IMCD3 cells (FIG. 2, text)
1 | CCN1CCC(c2nc3ccc(C(=O)N[C@H]4CCOc5ccccc54)cn3n2)CC1 [Example 51, (S)—N-(chroman-4-yl)-2-(1-ethylpiperidin-4-yl)-[1,2,4]triazolo[1,5-a]pyridine-6-carboxamide] | concentration-dependent inhibition

same assay, conditions: Mus musculus, mIMCD3, 144 h, 10 μM test compound, mean cyst area compared to 100% for (DMSO + PGE2) and 0% for DMSO control, read-out: % Cyst area* after incubation with 10 μM test compound

Row | SMILES | activity at 10 µM [%]
2 | Cc1ccncc1-c1nc2cc(C(=O)N[C@H]3CCOc4ccccc43)ccc2[nH]1 [Example 1, (S)—N-(chroman-4-yl)-2-(4-methylpyridin-3-yl)-1H-benzo[d]imidazole-5-carboxamide] | 26
3 | Cc1ncccc1-c1nc2cc(C(=O)N[C@H]3CCOc4ccccc43)ccc2[nH]1 [Example 3, (S)—N-(chroman-4-yl)-2-(2-methylpyridin-3-yl)-1H-benzo[d]imidazole-5-carboxamide] | 20
4 | Cc1ccc(-c2nc3cc(C(=O)N[C@H]4CCOc5ccccc54)ccc3n2C)cn1 [Example 21, (S)—N-(chroman-4-yl)-1-methyl-2-(6-methylpyridin-3-yl)-1H-benzo[d]imidazole-5-carboxamide] | 3
5 | Cc1ncccc1-c1nc2cc(C(=O)N[C@H]3CCOc4ccccc43)ccc2n1C [Example 22, (S)—N-(chroman-4-yl)-1-methyl-2-(2-methylpyridin-3-yl)-1H-benzo[d]imidazole-5-carboxamide] | 18
6 | Cc1cncc(-c2nc3cc(C(=O)N[C@H]4CCOc5ccccc54)ccc3n2C)c1 [Example 23, (S)—N-(chroman-4-yl)-1-methyl-2-(5-methylpyridin-3-yl)-1H-benzo[d]imidazole-5-carboxamide] | 12
7 | Cn1c(-c2cccnc2)nc2cc(C(=O)N[C@H]3CCOc4ccccc43)ccc21 [Example 24, (S)—N-(chroman-4-yl)-1-methyl-2-(pyridin-3-yl)-1H-benzo[d]imidazole-5-carboxamide] | 21
8 | Cn1c(N2CCNCC2)nc2ccc(C(=O)N[C@H]3CCOc4ccccc43)cc21 [Example 31, (S)—N-(chroman-4-yl)-1-methyl-2-(piperazin-1-yl)-1H-benzo[d]imidazole-6-carboxamide] | 3
9 | Cn1c(N2CCNCC2)nc2cc(C(=O)N[C@H]3CCOc4ccccc43)ccc21 [Example 33, (S)—N-(chroman-4-yl)-1-methyl-2-(piperazin-1-yl)-1H-benzo[d]imidazole-5-carboxamide] | 19
10 | O=C(N[C@H]1CCOc2ccccc21)c1ccc2nc(N3CCNCC3)nn2c1 [Example 40, (S)—N-(chroman-4-yl)-2-(piperazin-1-yl)-[1,2,4]triazolo[1,5-a]pyridine-6-carboxamide] | 11
11 | CCN1CCN(c2nc3ccc(C(=O)N[C@H]4CCOc5ccccc54)cn3n2)CC1 [Example 45, (S)—N-(chroman-4-yl)-2-(4-ethylpiperazin-1-yl)-[1,2,4]triazolo[1,5-a]pyridine-6-carboxamide] | 15
12 | CC(C)N1CCN(c2nc3ccc(C(=O)N[C@H]4CCOc5ccccc54)cn3n2)CC1 [Example 46, (S)—N-(chroman-4-yl)-2-(4-isopropylpiperazin-1-yl)-[1,2,4]triazolo[1,5-a]pyridine-6-carboxamide] | 4
13 | O=C(N[C@H]1CCc2ccccc21)c1ccc2nc(N3CCNCC3)nn2c1 [Example 48, (S)—N-(2,3-dihydro-1H-inden-1-yl)-2-(piperazin-1-yl)-[1,2,4]triazolo[1,5-a]pyridine-6-carboxamide] | 22
14 | CN1CCC(c2nc3ccc(C(=O)N[C@H]4CCOc5ccccc54)cn3n2)CC1 [Example 50, (S)—N-(chroman-4-yl)-2-(1-methylpiperidin-4-yl)-[1,2,4]triazolo[1,5-a]pyridine-6-carboxamide] | 6
15 | CCN1CCC(c2nc3ccc(C(=O)N[C@H]4CCOc5ccccc54)cn3n2)CC1 [Example 51, (S)—N-(chroman-4-yl)-2-(1-ethylpiperidin-4-yl)-[1,2,4]triazolo[1,5-a]pyridine-6-carboxamide] | 6
16 | Cc1ncccc1-c1nc2cc(C(=O)N[C@H]3CCOc4ccccc43)ccn2n1 [Example 52, (S)—N-(chroman-4-yl)-2-(2-methylpyridin-3-yl)-[1,2,4]triazolo[1,5-a]pyridine-7-carboxamide] | 19
17 | CN1CCN(c2nc3cc(C(=O)N[C@H]4CCOc5ccccc54)ccn3n2)CC1 [Example 56, (S)—N-(chroman-4-yl)-2-(4-methylpiperazin-1-yl)-[1,2,4]triazolo[1,5-a]pyridine-7-carboxamide] | 14
18 | O=C(N[C@H]1CCOc2ccccc21)c1ccn2nc(N3CCCCC3)nc2c1 [Example 59, (S)—N-(chroman-4-yl)-2-(piperidin-1-yl)-[1,2,4]triazolo[1,5-a]pyridine-7-carboxamide] | 26
19 | CCN1CCN(c2nc3cc(C(=O)N[C@H]4CCOc5ccccc54)ccn3n2)CC1 [Example 60, (S)—N-(chroman-4-yl)-2-(4-ethylpiperazin-1-yl)-[1,2,4]triazolo[1,5-a]pyridine-7-carboxamide] | 18
20 | CC(C)N1CCN(c2nc3cc(C(=O)N[C@H]4CCOc5ccccc54)ccn3n2)CC1 [Example 61, (S)—N-(chroman-4-yl)-2-(4-isopropylpiperazin-1-yl)-[1,2,4]triazolo[1,5-a]pyridine-7-carboxamide] | 10
21 | O=C(N[C@H]1CCc2ccccc21)c1ccn2nc(N3CCNCC3)nc2c1 [Example 62, (S)—N-(2,3-dihydro-1H-inden-1-yl)-2-(piperazin-1-yl)-[1,2,4]triazolo[1,5-a]pyridine-7-carboxamide] | 0
22 | CN1CCN(c2nc3cc(C(=O)N[C@H]4CCc5ccccc54)ccn3n2)CC1 [Example 64, (S)—N-(2,3-dihydro-1H-inden-1-yl)-2-(4-methylpiperazin-1-yl)-[1,2,4]triazolo[1,5-a]pyridine-7-carboxamide] | 1
23 | O=C(NC1CCCC1)c1ccc2nc(N3C4CCC3CNC4)cn2c1 [Example 67, 2-(3,8-diazabicyclo[3.2.1]octan-8-yl)-N-cyclopentylimidazo[1,2-a]pyridine-6-carboxamide] | 27
24 | O=C(N[C@H]1CCOc2ccccc21)c1cnc2cc(N3CCNCC3)nn2c1 [Example 68, (S)—N-(chroman-4-yl)-2-(piperazin-1-yl)pyrazolo[1,5-a]pyrimidine-6-carboxamide] | 9
25 | CN1CCN(c2cc3ncc(C(=O)N[C@H]4CCOc5ccccc54)cn3n2)CC1 [Example 69, (S)—N-(chroman-4-yl)-2-(4-methylpiperazin-1-yl)pyrazolo[1,5-a]pyrimidine-6-carboxamide] | 7
26 | CCN1CCN(c2cc3ncc(C(=O)N[C@H]4CCOc5ccccc54)cn3n2)CC1 [Example 70, (S)—N-(chroman-4-yl)-2-(4-ethylpiperazin-1-y)pyrazolo[1,5-a]pyrimidine-6-carboxamide] | 5
27 | CCN1CCN(c2cc3ncc(C(=O)NC4CCCCC4)cn3n2)CC1 [Example 73, N-cyclohexyl-2-(4-ethylpiperazin-1-yl)pyrazolo[1,5-a]pyrimidine-6-carboxamide] | -3
28 | CCN1CCN(c2cc3ncc(C(=O)N[C@H]4CCc5ccccc54)cn3n2)CC1 [Example 75, (S)—N-(2,3-dihydro-1H-inden-1-yl)-2-(4-ethylpiperazin-1-yl)pyrazolo[1,5-a]pyrimidine-6-carboxamide] | 19
29 | CN1CCN(c2cc3ncc(C(=O)NC4CCCC4)cn3n2)CC1 [Example 76, N-cyclopentyl-2-(4-methylpiperazin-1-yl)pyrazolo[1,5-a]pyrimidine-6-carboxamide] | 9
